Measured values: paper PMC4286194 (Biochemical Journal, 2015)

Tests used:
[1] = target: T1, SIK3 (Homo sapiens, UniProt Q9Y2K2); assay: Kinase assay, IC50 curve; format: biochemical; settings: read-out: IC50 against SIK3
T1 construct: GST; made in house; host or cells: HEK293 cells

[2] = target: YES1 (Homo sapiens, UniProt P07947); assay: Kinase profiling; format: biochemical
[3] = target: EPH-B4 (Homo sapiens, UniProt P54760); assay: Kinase profiling; format: biochemical
[4] = target: T2, BTK (Homo sapiens, UniProt Q06187); assay: Kinase profiling; format: biochemical
Target sequence in this assay (Q06187 whole entry): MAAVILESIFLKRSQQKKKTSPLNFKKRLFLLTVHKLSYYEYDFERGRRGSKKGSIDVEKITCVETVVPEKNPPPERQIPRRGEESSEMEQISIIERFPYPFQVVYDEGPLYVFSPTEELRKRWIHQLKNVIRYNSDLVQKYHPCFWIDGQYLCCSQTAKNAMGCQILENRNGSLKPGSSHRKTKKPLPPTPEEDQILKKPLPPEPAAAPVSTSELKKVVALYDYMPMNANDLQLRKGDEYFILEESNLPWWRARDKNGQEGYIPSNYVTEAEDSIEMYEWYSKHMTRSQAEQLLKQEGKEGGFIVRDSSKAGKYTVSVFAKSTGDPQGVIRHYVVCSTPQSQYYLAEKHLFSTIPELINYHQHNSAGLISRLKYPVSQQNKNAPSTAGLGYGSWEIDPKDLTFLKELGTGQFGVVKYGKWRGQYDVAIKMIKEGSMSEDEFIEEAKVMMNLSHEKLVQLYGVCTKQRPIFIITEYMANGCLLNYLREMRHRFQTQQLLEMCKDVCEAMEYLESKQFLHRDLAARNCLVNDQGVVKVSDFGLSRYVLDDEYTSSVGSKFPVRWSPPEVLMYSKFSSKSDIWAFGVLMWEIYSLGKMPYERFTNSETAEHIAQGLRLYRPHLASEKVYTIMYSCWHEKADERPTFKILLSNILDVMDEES

[5] = target: PHK (Homo sapiens, UniProt Q16816); assay: Kinase profiling; format: biochemical
[6] = target: STK33 (Homo sapiens, UniProt Q9BYT3); assay: Kinase profiling; format: biochemical
[7] = target: EPH-B2 (Homo sapiens, UniProt P29323); assay: Kinase profiling; format: biochemical
[8] = test system: Bcr-Abl, Src and Btk
Description: RAW264.7 cells were cultured in DMEM containing 10% FBS, 2 mM glutamine and penicillin and streptomycin. […] Cells were treated for 1 h with or without inhibitors and then stimulated for up to 24 h with either 1 μg/ml Pam3CSK4 or 100 ng/ml LPS.
Cells were extracted in lysis buffer [50 mM Tris/HCl, pH 7.4, 1 mM EDTA, 1 mM EGTA, 50 mM NaF, 5 mM sodium pyrophosphate, 10 mM sodium β-glycerol 1-phosphate, 1 mM DTT, 1 mM sodium orthovanadate, 0.27 M sucrose, 1% (v/v) Triton X-100, 1 μg/ml aprotinin, 1 μg/ml leupeptin and 1 mM PMSF]. Cell extracts were clarified by centrifugation and protein concentrations were determined using the Bradford assay. To immunoprecipitate endogenous CRTC3, 1 mg of cell extract was incubated with 5 μg of anti-CRTC3 [13] covalently cross-linked on to Protein G–Sepharose. Immune complexes were washed three times with lysis buffer, eluted in 1% SDS and separated by SDS/PAGE. To detect proteins in cell lysates, 20 μg of protein extract was separated by SDS/PAGE. After transfer to PVDF membranes, proteins were detected by immunoblotting and visualized by treating the blots with ECL (GE Healthcare) followed by autoradiography.

[9] = target: T2, BTK; assay: Kinase assay, IC50 curve; format: biochemical; set-up: BTK (amino acids 2–659); His6 (N); made in house; host or cells: Sf9 insect cells; settings: read-out: IC50 against BTK
Target sequence in this assay (Q06187 2-659, species assumed): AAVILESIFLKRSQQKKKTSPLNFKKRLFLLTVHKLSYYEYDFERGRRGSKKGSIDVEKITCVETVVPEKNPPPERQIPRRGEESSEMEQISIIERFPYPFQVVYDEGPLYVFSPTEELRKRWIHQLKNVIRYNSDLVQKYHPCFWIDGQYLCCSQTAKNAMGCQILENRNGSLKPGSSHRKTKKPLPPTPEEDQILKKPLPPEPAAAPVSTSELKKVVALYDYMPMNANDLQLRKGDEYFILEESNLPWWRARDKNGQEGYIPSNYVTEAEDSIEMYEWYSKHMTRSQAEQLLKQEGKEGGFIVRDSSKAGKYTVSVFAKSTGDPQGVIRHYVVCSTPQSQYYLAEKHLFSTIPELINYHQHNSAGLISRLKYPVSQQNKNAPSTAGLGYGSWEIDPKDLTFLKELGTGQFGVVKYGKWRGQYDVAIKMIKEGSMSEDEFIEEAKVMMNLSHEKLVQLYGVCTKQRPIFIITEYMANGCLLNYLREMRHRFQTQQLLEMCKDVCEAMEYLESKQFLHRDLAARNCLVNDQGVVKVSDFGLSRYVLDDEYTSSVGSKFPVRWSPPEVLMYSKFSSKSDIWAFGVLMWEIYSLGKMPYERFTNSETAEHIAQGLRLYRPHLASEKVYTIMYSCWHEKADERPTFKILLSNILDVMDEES

Chain of PHK (Q16816 whole entry): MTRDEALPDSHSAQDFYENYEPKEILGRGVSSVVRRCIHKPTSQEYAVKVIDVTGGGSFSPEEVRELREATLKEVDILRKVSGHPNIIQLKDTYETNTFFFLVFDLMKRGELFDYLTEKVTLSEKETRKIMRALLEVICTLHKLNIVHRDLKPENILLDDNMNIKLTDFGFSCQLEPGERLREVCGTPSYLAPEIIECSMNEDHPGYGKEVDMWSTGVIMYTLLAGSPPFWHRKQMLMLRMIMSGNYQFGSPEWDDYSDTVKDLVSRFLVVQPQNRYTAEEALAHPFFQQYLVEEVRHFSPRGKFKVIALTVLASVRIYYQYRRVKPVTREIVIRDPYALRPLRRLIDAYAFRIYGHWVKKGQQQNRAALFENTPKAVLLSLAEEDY
Chain of EPH-B2 (P29323 19-1055): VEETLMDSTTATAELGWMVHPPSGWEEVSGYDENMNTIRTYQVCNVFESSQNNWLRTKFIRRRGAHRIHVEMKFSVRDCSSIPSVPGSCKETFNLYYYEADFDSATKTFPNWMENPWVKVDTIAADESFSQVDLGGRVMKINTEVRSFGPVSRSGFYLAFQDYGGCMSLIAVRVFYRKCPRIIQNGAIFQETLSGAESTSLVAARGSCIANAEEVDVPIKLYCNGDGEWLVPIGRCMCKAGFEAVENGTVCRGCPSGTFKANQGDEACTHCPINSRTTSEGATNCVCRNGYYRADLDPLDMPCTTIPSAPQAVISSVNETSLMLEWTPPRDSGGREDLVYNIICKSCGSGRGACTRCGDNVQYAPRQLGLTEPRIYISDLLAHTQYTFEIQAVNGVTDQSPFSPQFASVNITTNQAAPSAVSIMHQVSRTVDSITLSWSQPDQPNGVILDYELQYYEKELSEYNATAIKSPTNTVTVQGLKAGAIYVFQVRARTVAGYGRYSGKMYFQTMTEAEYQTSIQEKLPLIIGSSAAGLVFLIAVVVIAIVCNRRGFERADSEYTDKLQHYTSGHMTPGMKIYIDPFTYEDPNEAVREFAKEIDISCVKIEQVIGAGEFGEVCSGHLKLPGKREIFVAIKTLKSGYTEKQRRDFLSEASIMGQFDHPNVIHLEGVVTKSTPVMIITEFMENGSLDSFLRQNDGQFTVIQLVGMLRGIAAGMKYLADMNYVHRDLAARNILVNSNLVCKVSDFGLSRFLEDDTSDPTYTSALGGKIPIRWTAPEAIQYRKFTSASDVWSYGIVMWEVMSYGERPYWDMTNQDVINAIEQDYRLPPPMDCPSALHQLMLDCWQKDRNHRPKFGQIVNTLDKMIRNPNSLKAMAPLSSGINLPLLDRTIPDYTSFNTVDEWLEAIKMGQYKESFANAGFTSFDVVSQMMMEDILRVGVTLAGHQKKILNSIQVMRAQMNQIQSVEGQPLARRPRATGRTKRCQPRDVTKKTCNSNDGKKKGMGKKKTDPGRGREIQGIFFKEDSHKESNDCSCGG
Chain of EPH-B4 (P54760 16-987): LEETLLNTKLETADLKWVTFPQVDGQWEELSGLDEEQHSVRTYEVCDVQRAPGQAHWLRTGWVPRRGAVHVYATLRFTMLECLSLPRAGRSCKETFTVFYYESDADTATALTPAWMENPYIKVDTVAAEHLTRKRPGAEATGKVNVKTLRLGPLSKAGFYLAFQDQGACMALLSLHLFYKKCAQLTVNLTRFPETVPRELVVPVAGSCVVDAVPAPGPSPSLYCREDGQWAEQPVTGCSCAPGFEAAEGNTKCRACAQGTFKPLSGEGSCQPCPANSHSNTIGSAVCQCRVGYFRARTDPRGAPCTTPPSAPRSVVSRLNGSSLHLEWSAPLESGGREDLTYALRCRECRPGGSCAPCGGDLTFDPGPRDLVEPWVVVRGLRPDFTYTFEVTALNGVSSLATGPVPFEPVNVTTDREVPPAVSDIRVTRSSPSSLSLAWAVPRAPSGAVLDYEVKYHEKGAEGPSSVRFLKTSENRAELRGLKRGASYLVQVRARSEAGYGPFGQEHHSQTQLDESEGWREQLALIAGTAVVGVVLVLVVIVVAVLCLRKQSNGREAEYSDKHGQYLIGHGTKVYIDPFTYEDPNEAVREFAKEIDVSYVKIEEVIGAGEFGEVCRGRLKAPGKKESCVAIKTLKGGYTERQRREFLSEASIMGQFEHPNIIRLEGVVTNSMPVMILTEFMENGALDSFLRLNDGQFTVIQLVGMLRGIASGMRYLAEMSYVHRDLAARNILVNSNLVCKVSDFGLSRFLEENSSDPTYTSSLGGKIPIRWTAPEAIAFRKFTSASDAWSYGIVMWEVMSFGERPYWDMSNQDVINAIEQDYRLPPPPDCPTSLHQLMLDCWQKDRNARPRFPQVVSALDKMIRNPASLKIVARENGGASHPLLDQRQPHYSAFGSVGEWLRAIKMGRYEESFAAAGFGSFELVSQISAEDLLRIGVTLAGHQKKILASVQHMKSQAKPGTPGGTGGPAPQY
Chain of STK33 (Q9BYT3 whole entry): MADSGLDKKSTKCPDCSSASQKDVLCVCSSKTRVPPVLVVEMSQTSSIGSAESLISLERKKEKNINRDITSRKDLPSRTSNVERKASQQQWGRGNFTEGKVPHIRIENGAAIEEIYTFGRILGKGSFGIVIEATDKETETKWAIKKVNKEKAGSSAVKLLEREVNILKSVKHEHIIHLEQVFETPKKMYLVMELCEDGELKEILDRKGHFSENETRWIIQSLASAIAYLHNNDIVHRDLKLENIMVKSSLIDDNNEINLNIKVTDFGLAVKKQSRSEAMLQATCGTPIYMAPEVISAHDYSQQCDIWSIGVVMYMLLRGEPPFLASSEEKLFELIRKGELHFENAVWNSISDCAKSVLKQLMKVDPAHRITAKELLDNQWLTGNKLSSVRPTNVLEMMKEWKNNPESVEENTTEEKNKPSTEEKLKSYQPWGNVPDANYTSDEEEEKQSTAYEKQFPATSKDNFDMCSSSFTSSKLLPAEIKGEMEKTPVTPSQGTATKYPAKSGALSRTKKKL
Chain of YES1 (P07947 whole entry): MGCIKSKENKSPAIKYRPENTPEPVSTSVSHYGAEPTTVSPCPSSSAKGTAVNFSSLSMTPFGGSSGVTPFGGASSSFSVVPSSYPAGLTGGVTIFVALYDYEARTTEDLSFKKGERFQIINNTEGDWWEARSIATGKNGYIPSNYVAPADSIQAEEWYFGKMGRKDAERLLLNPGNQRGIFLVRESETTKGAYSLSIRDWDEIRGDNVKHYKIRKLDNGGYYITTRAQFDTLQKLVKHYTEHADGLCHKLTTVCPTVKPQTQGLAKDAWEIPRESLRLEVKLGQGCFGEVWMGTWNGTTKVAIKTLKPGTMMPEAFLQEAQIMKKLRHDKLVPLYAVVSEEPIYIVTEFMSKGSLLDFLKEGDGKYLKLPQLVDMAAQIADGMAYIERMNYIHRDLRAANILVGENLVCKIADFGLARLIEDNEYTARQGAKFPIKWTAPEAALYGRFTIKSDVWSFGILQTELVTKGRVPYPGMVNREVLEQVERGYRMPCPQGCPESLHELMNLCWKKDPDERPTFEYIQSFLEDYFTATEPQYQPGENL

Molecule `COc1cc(Nc2c(C#N)cnc3cc(OCCCN4CCN(C)CC4)c(OC)cc23)c(Cl)cc1Cl` [Bosutinib, bosutinib] has an IC50 [1] of 0.018 µM, a remaining activity at 0.1 µM ([2]; 0.1 µM) of 2 ± 1% and a remaining activity at 1 µM ([2]; 1 µM) of 1%. The remaining activity at 0.1 µM ([3]; 0.1 µM) was 10%, the remaining activity at 1 µM ([3]; 1 µM) was 2% and the remaining activity at 0.1 µM ([4]; 0.1 µM) was 1%. The remaining activity at 1 µM ([4]; 1 µM) was 1%, the remaining activity at 0.1 µM ([5]; 0.1 µM) was 55% and the remaining activity at 1 µM ([5]; 1 µM) was 12%. The remaining activity at 0.1 µM ([6]; 0.1 µM) was 34%, the remaining activity at 1 µM ([6]; 1 µM) was 17 ± 4% and the remaining activity at 0.1 µM ([7]; 0.1 µM) was 1 ± 1%. The remaining activity at 1 µM ([7]; 1 µM) was 0%, the “Activity of Bcr-Abl, Src and Btk in primary mouse macrophages” value [8] was “completely blocking” and the IC50 [9] was 0.015 µM.
